The source of these data is PubChem BioAssay AID248 (DTP/NCI, 2004).

Toxic doses and inconclusive results are not listed.

This assay concerns L1210 leukemia ip in BDF1 mice, survival T/C. Put plainly: NCI In Vivo Anticancer Drug Screen. Data for tumor model L1210 Leukemia (intraperitoneal) in B6D2F1 (BDF1) mice. The note with it: endpoint: mean survival time, higher = longer survival. A digest of the protocol: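 In this screen, tumor-bearing mice given compound are compared to those given vehicle, and their survival values are reported as a treated-to-control quotient.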

[1] abbreviates: dose: 100.0 mg/kg/injection, schedule: Q01DX009 (ip), vehicle: saline with Tween-80.
[2] abbreviates: dose: 50.0 mg/kg/injection, schedule: Q04DX003 (ip), vehicle: Klucel (hydroxypropylcellulose) (HPC).
[3] abbreviates: dose: 100.0 mg/kg/injection, schedule: Q04DX003 (ip), vehicle: saline with Tween-80.
[4] abbreviates: dose: 200.0 mg/kg/injection, schedule: Q04DX003 (ip), vehicle: saline with Tween-80.
Where [5] appears, read: dose: 400.0 mg/kg/injection, schedule: Q04DX003 (ip), vehicle: saline with Tween-80.
The mark [6] stands for this setting: dose: 25.0 mg/kg/injection, schedule: Q01DX009 (ip), vehicle: saline.
The mark [7] stands for this setting: dose: 50.0 mg/kg/injection, schedule: Q01DX009 (ip), vehicle: saline.

`COc1c2c(c(OC)c3c(OC)c4ccccc4c(OC)c13)CC=CC2`: the T/C is 94 % of control (dose: 50.0 mg/kg/injection, schedule: Q01DX005 (ip), vehicle: water); 87 % of control (dose: 100.0 mg/kg/injection, schedule: Q01DX005 (ip), vehicle: water); 89 % of control (dose: 200.0 mg/kg/injection, schedule: Q01DX005 (ip), vehicle: water); 87 % of control (dose: 400.0 mg/kg/injection, schedule: Q01DX005 (ip), vehicle: water).

In the case of `CCCCCCP(=O)(O)O`, the T/C under setting [1] was 88 % of control.

In the case of `Clc1ccc(-c2ncnc3c2Cc2ccccc2-3)cc1`, the T/C was 98 % of control (dose: 100.0 mg/kg/injection, schedule: Q01DX009 (ip), vehicle: saline sonified); 99 % of control (dose: 100.0 mg/kg/injection, schedule: Q04DX003 (ip), vehicle: saline sonified); 98 % of control (dose: 200.0 mg/kg/injection, schedule: Q01DX009 (ip), vehicle: saline sonified); 99 % of control (dose: 200.0 mg/kg/injection, schedule: Q04DX003 (ip), vehicle: saline sonified); 97 % of control (dose: 400.0 mg/kg/injection, schedule: Q01DX009 (ip), vehicle: saline sonified); 96 % of control (dose: 400.0 mg/kg/injection, schedule: Q04DX003 (ip), vehicle: saline sonified).

As to `C[P+](Cc1ccc([N+](=O)[O-])cc1)(c1ccccc1)c1ccccc1`, the T/C (dose: 12.5 mg/kg/injection, schedule: Q01DX009 (ip), vehicle: Klucel (hydroxypropylcellulose) (HPC)) was 99 % of control; the T/C (dose: 12.5 mg/kg/injection, schedule: Q04DX003 (ip), vehicle: Klucel (hydroxypropylcellulose) (HPC)) is 100 % of control; the T/C (dose: 25.0 mg/kg/injection, schedule: Q01DX009 (ip), vehicle: Klucel (hydroxypropylcellulose) (HPC)) was 90 % of control; the T/C (dose: 25.0 mg/kg/injection, schedule: Q04DX003 (ip), vehicle: Klucel (hydroxypropylcellulose) (HPC)) was 86 % of control; the T/C under setting [2] is 96 % of control.

With `CC12CCC(CC1)C2C(=O)O` (stereo unspecified), the T/C was 106 % of control (dose: 75.0 mg/kg/injection, schedule: Q01DX009 (ip), vehicle: saline with Tween-80); 102 % of control under setting [3]; 93 % of control (dose: 150.0 mg/kg/injection, schedule: Q01DX009 (ip), vehicle: saline with Tween-80); 98 % of control under setting [4]; 98 % of control (dose: 300.0 mg/kg/injection, schedule: Q01DX009 (ip), vehicle: saline with Tween-80); 102 % of control under setting [5].

For `COc1ccc(CCC(=O)c2ccccc2)cc1`, the T/C was 98 % of control under setting [2]; 104 % of control (dose: 100.0 mg/kg/injection, schedule: Q04DX003 (ip), vehicle: Klucel (hydroxypropylcellulose) (HPC)); 107 % of control (dose: 200.0 mg/kg/injection, schedule: Q04DX003 (ip), vehicle: Klucel (hydroxypropylcellulose) (HPC)).

For the compound `CN(C)C=Nc1ccc(Cl)c(Cl)c1`, the T/C reads like this: (dose: 12.5 mg/kg/injection, schedule: Q01DX009 (ip), vehicle: saline) 90 % of control; under setting [6], 90 % of control; under setting [7], 90 % of control; under setting [3], 97 % of control.

On to `CCCCCCCC(C(C)=O)C(=O)OCC` (stereo unspecified), for which the T/C was 95 % of control (dose: 100.0 mg/kg/injection, schedule: Q01DX001 (ip), vehicle: saline with Tween-80); 103 % of control (dose: 200.0 mg/kg/injection, schedule: Q01DX001 (ip), vehicle: saline with Tween-80); 95 % of control (dose: 400.0 mg/kg/injection, schedule: Q01DX001 (ip), vehicle: saline with Tween-80).

`NNC(=O)C1CC2C=CC1C2` (stereo unspecified): the T/C was 100 % of control (dose: 100.0 mg/kg/injection, schedule: Q01DX009 (ip), vehicle: saline) and 103 % of control (dose: 200.0 mg/kg/injection, schedule: Q01DX009 (ip), vehicle: saline).

`CCCCC(CC)CCC(C)O` (stereo unspecified): the T/C by setting is: (dose: 50.0 mg/kg/injection, schedule: Q01DX009 (ip), vehicle: saline with Tween-80) 96 % of control; under setting [1], 94 % of control; under setting [3], 108 % of control; under setting [4], 95 % of control.

`N=NC(=O)c1ccccc1Nc1c(O)[nH]c2ccccc12`: the T/C reads like this: (dose: 100.0 mg/kg/injection, schedule: Q01DX001 (ip), vehicle: carboxymethylcellulose (CMC)) 89 % of control; (dose: 200.0 mg/kg/injection, schedule: Q01DX001 (ip), vehicle: carboxymethylcellulose (CMC)) 93 % of control; (dose: 400.0 mg/kg/injection, schedule: Q01DX001 (ip), vehicle: carboxymethylcellulose (CMC)) 93 % of control.

In the case of `CC(=O)OCC(C)c1ccccc1` (stereo unspecified), the T/C is, setting by setting: (dose: 100.0 mg/kg/injection, schedule: Q04DX002 (ip), vehicle: saline) 96 % of control; (dose: 200.0 mg/kg/injection, schedule: Q04DX002 (ip), vehicle: saline) 103 % of control; (dose: 400.0 mg/kg/injection, schedule: Q04DX002 (ip), vehicle: saline) 96 % of control.

With `O=NN(CCCl)C(=O)NC1CCC(Cl)CC1` (stereo unspecified), the T/C was 123 % of control (dose: 12.0 mg/kg/injection, schedule: Q01DX001 (ip), vehicle: Klucel (hydroxypropylcellulose) (HPC)); 217 % of control (dose: 21.0 mg/kg/injection, schedule: Q01DX001 (ip), vehicle: Klucel (hydroxypropylcellulose) (HPC)); 182 % of control (dose: 21.0 mg/kg/injection, schedule: Q01DX001 (ip), vehicle: carboxymethylcellulose (CMC)); 303 % of control (dose: 26.0 mg/kg/injection, schedule: Q01DX001 (ip), vehicle: Klucel (hydroxypropylcellulose) (HPC)); 387 % of control (dose: 34.0 mg/kg/injection, schedule: Q01DX001 (ip), vehicle: Klucel (hydroxypropylcellulose) (HPC)); 346 % of control (dose: 34.0 mg/kg/injection, schedule: Q01DX001 (ip), vehicle: carboxymethylcellulose (CMC)). Moreover, the T/C was 291 % of control (dose: 40.0 mg/kg/injection, schedule: Q01DX001 (ip), vehicle: Klucel (hydroxypropylcellulose) (HPC)); 460 % of control (dose: 49.0 mg/kg/injection, schedule: Q01DX001 (ip), vehicle: Klucel (hydroxypropylcellulose) (HPC)); 469 % of control (dose: 49.0 mg/kg/injection, schedule: Q01DX001 (ip), vehicle: carboxymethylcellulose (CMC)); 275 % of control (dose: 60.0 mg/kg/injection, schedule: Q01DX001 (ip), vehicle: Klucel (hydroxypropylcellulose) (HPC)); 439 % of control (dose: 74.0 mg/kg/injection, schedule: Q01DX001 (ip), vehicle: Klucel (hydroxypropylcellulose) (HPC)); 469 % of control (dose: 74.0 mg/kg/injection, schedule: Q01DX001 (ip), vehicle: carboxymethylcellulose (CMC)). In addition, the T/C (dose: 90.0 mg/kg/injection, schedule: Q01DX001 (ip), vehicle: Klucel (hydroxypropylcellulose) (HPC)) is 91 % of control; the T/C (dose: 110.0 mg/kg/injection, schedule: Q01DX001 (ip), vehicle: Klucel (hydroxypropylcellulose) (HPC)) is 218 % of control; the T/C (dose: 110.0 mg/kg/injection, schedule: Q01DX001 (ip), vehicle: carboxymethylcellulose (CMC)) was 153 % of control; the T/C (dose: 133.0 mg/kg/injection, schedule: Q01DX001 (ip), vehicle: Klucel (hydroxypropylcellulose) (HPC)) is 98 % of control.

On to `Cc1cc(S(=O)(=O)O)c(N)cc1Cl`, for which the T/C was 99 % of control under setting [3], 97 % of control under setting [4] and 100 % of control under setting [5].

Regarding `C1CCC2(CC1)NN2`, the T/C is 101 % of control (dose: 50.0 mg/kg/injection, schedule: Q01DX001 (ip), vehicle: water); 104 % of control (dose: 100.0 mg/kg/injection, schedule: Q01DX001 (ip), vehicle: water); 98 % of control (dose: 200.0 mg/kg/injection, schedule: Q01DX001 (ip), vehicle: water); 103 % of control (dose: 400.0 mg/kg/injection, schedule: Q01DX001 (ip), vehicle: water).

In the case of `CCC[As](=O)(O)CCC`, the T/C is 107 % of control under setting [6]; 112 % of control under setting [7]; 111 % of control (dose: 100.0 mg/kg/injection, schedule: Q04DX003 (ip), vehicle: saline).

Consider `COc1ccc(OC)c(N=CC(=O)c2ccc(C)cc2)c1`, for which the T/C was 95 % of control (dose: 75.0 mg/kg/injection, schedule: Q04DX003 (ip), vehicle: Klucel (hydroxypropylcellulose) (HPC)); 94 % of control (dose: 150.0 mg/kg/injection, schedule: Q04DX003 (ip), vehicle: Klucel (hydroxypropylcellulose) (HPC)); 97 % of control (dose: 300.0 mg/kg/injection, schedule: Q04DX003 (ip), vehicle: Klucel (hydroxypropylcellulose) (HPC)).

Take `CCCCOC(=O)NCCSC(=O)OCCCC`: the T/C was 101 % of control under setting [3], 93 % of control under setting [4] and 95 % of control under setting [5].
